Laboratory results published in ChEMBL document CHEMBL1135520, “Rational design and synthesis of a novel thyroid hormone antagonist that blocks coactivator recruitment” (J Med Chem, 2002).
pEC50, pIC50, pKd: −log10 of the molar value.

Key:
[1] = target: T1, Thyroid hormone receptor beta (Homo sapiens, UniProt P10828); assay: Half-maximum activation of human Thyroid hormone receptor beta 1 (hTRbeta1)
T1 sequence (P10828 whole entry): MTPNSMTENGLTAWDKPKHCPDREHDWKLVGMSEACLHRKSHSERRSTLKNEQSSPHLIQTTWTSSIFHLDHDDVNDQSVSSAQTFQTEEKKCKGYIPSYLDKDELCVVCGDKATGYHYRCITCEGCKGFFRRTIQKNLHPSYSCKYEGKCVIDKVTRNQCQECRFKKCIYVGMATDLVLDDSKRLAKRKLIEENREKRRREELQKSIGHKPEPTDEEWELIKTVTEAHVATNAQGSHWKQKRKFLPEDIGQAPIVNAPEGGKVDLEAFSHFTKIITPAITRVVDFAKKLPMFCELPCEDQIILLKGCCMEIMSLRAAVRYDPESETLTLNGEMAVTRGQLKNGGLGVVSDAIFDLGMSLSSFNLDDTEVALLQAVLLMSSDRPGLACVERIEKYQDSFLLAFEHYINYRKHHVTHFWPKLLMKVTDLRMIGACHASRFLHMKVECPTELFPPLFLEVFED

[2] = target: T2, Thyroid hormone receptor alpha (Homo sapiens, UniProt P10827); assay: Half-maximum activation of human Thyroid hormone receptor alpha-1 (hTRalpha1)
T2 sequence (P10827 whole entry): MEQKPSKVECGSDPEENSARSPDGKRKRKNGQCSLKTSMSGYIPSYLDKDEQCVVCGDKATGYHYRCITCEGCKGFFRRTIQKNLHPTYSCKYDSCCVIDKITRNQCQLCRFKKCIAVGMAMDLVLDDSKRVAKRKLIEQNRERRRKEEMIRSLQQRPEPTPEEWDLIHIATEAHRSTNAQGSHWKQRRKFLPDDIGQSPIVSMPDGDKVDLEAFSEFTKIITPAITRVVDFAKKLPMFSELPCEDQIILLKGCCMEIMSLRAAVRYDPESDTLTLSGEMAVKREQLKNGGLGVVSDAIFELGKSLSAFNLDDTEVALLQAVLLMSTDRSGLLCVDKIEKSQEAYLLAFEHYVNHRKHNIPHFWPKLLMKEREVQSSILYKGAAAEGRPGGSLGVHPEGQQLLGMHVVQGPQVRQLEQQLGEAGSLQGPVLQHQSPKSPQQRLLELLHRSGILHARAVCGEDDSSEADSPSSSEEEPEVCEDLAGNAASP

[3] = target: T1, Thyroid hormone receptor beta
[4] = target: T2, Thyroid hormone receptor alpha

Row | Compound | pIC50 [1] | pIC50 [2] | pKd [3] | pKd [4] | pEC50 [1]
1 | Cc1cc(OCC(=O)O)cc(C)c1Cc1cc(C#Cc2ccc([N+](=O)[O-])cc2)c(O)c(C(C)C)c1 | 6.43 | 6.02 | 7.70 | 7.03 | –
2 | Cc1cc(OCC(=O)O)cc(C)c1Cc1cc(-c2ccc([N+](=O)[O-])cc2)c(O)c(C(C)C)c1 | 6.17 | 5.30 | 7.46 | 6.70 | –
3 | Cc1cc(OCC(=O)O)cc(C)c1Cc1cc(C#Cc2ccc(N)cc2)c(O)c(C(C)C)c1 | – | – | 7.05 | 6.48 | –
4 | CCCCCc1ccc(C#Cc2cc(Cc3c(C)cc(OCC(=O)O)cc3C)cc(C(C)C)c2O)cc1 | – | – | 9.28 | 8.28 | 6.42
5 | Cc1cc(OCC(=O)O)cc(C)c1Cc1cc(C#Cc2ccccc2)c(O)c(C(C)C)c1 | – | – | 7.43 | 6.31 | 6.30
